Laboratory results from ChEMBL document CHEMBL3045053, “Synthesis of the quinoline-linked triazolopyrimidine analogues and their interactions with the recombinant tobacco acetolactate synthase” (Biochem Biophys Res Commun, 1999).
The source made the active and inactive calls. The calls are words filed in the database; no cut-off is given here.

target: T1, Acetolactate synthase (Nicotiana tabacum, UniProt C0L093); experiment: Inhibition of wild type Nicotiana tabacum (tobacco) GST-tagged acetolactate synthase expressed in Escherichia coli by modified Westerfeld method
T1 sequence (C0L093 whole entry): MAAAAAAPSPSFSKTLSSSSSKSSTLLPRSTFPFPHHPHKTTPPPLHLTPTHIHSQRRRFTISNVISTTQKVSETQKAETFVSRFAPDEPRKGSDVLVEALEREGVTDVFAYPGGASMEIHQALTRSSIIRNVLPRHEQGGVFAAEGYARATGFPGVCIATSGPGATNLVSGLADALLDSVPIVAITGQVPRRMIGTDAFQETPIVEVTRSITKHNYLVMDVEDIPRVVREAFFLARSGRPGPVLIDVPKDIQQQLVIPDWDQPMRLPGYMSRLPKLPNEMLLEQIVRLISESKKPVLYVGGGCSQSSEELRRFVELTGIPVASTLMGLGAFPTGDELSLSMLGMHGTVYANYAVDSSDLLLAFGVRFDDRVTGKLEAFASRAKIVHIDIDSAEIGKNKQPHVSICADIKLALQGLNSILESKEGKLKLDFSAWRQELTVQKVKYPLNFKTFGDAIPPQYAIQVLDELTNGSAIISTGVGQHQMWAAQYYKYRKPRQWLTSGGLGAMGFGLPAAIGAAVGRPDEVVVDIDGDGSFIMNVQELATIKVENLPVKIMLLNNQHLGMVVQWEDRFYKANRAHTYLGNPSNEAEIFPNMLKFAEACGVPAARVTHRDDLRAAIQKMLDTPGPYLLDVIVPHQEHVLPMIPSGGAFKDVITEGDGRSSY

| Structure (SMILES) | IC50 |
| --- | --- |
| Cc1ccn2nc(S(=O)(=O)Nc3c(F)ccc4cccnc34)nc2n1 | 17.1 nM |
| Cc1ccn2nc(S(=O)(=O)Nc3c(Br)ccc4cccnc34)nc2n1 | 19.2 nM |
| Cc1cc(C)n2nc(S(=O)(=O)Nc3c(Cl)ccc4cccnc34)nc2n1 | 9.4 nM |
| Cc1ccn2nc(S(=O)(=O)Nc3c(Cl)ccc4cccnc34)nc2n1 | 37.2 nM |
| Cc1cc(C)n2nc(S(=O)(=O)Nc3cccc4cccnc34)nc2n1 | 32.3 nM |
| Cc1cc(C)n2nc(S(=O)(=O)Nc3c(Br)ccc4cccnc34)nc2n1 | 8.7 nM |
| Cc1cc(C)n2nc(S(=O)(=O)Nc3c(F)ccc4cccnc34)nc2n1 | 7.7 nM |
| Cc1ccn2nc(S(=O)(=O)Nc3c(C#N)ccc4cccnc34)nc2n1 | 64 nM |
| Cc1ccn2nc(S(=O)(=O)Nc3c(F)cccc3F)nc2n1 [FLUMETSULAM] | 31.6 nM |

target: T2, Acetolactate synthase (Nicotiana tabacum) (UniProt C0L093); experiment: Inhibition of wild type Nicotiana tabacum (tobacco) GST-tagged acetolactate synthase expressed in Escherichia coli at 1 mM by modified Westerfeld method
T2 sequence (whole entry): T1 sequence (C0L093 whole entry)

| inhibition | Structure (SMILES) |
| --- | --- |
| inactive | Cc1cc(C)n2nc(S(=O)(=O)Nc3cccc4ncccc34)nc2n1 |
| inactive | Cc1cc(C)n2nc(S(=O)(=O)Nc3cccc4cnccc34)nc2n1 |
| inactive | Cc1ccn2nc(S(=O)(=O)Nc3nccc4ccccc34)nc2n1 |
| inactive | Cc1cc(C)n2nc(S(=O)(=O)Nc3nccc4ccccc34)nc2n1 |
| inactive | Cc1ccn2nc(S(=O)(=O)Nc3cccc4ncccc34)nc2n1 |
| inactive | Cc1ccn2nc(S(=O)(=O)Nc3cccc4cnccc34)nc2n1 |

target: Acetolactate synthase (Nicotiana tabacum, UniProt C0L093); experiment: Inhibition of wild type Nicotiana tabacum (tobacco) S4-Hra GST-tagged acetolactate synthase mutant expressed in Escherichia coli by modified Westerfeld method

| Structure (SMILES) | IC50 |
| --- | --- |
| Cc1ccn2nc(S(=O)(=O)Nc3c(F)ccc4cccnc34)nc2n1 | 16500 nM |
| Cc1cc(C)n2nc(S(=O)(=O)Nc3c(F)ccc4cccnc34)nc2n1 | 14700 nM |
| Cc1ccn2nc(S(=O)(=O)Nc3c(F)cccc3F)nc2n1 [FLUMETSULAM] | 939 nM |
